Laboratory results as given in PMC10683025, “Discovery of a Hydroxylamine-Based Brain-Penetrant EGFR Inhibitor for Metastatic Non-Small-Cell Lung Cancer” (Journal of Medicinal Chemistry, 2023).
Entries after “also recorded” stand apart in the source; their conditions may differ.

Tests used:
[1] = Metabolic stability in hepatocytes; type: in vitro ADME, cynomolgus monkey; conditions: for Remaining Percentages: monkey hepatocytes
Description: Microsome stability was assessed in duplicate (n = 2) in the presence and absence of nicotinamide adenine dinucleotide phosphate (NADPH) with liver microsomes (0.5 mg/mL) from human (BD Gentest) and Sprague-Dawley rats (BD Gentest). Compounds were incubated in liver microsomes at 1 μM and samples (30 μL) were taken at 0.5, 15, 30, 45, and 60 min time points for analysis by LC-MS/MS. Hepatocyte stability was assessed in duplicate (n = 2) at a working cell density of 0.5 × 10^6 cells/mL with hepatocytes from human (BiolVT), Sprague-Dawley rat (BiolVT), cynomolgus monkey (RILD) or beagle dog (BiolVT). […] The in vitro half-life and intrinsic clearances were determined as previously described.[76]
In vitro half-life (in vitro t1/2) was determined from the slope value in [drawing 1] where k was determined by linear regression of the natural logarithm of the remaining percentage of the parent drug vs the incubation time curve.

AMPK-alpha2 = target: T1, AMPK-alpha2 (Homo sapiens, UniProt P54646); test: KINOMEScan; type: binding; conditions: AMPK-alpha2, 1 µM; read-out: Percent Control
T1 construct: purchased Eurofins DiscoverX (KINOMEscan)
Description: (§1) Percent control was mapped onto the kinome tree using TREEspot.

ERBB2 (HER2) = target: T2, ERBB2 (HER2) (Homo sapiens, UniProt P04626); test: KINOMEScan; type: binding; conditions: read-out: Percent Control
T2 construct: purchased Eurofins DiscoverX (KINOMEScan service)
Description: as §1

AURKC = target: T3, AURKC (Homo sapiens, UniProt Q9UQB9); test: KINOMEScan; type: binding; conditions: read-out: Percent Control
T3 construct: purchased Eurofins DiscoverX (KINOMEscan)

WNK2 = target: T4, WNK2 (Homo sapiens, UniProt Q9Y3S1); test: KINOMEScan; type: binding; conditions: WNK2, 1 µM; read-out: Percent Control
T4 construct: purchased Eurofins DiscoverX
Description: as §1

AKT1 = target: T5, AKT1 (Homo sapiens, UniProt P31749); test: KINOMEScan; type: binding; conditions: AKT1, 1 µM; read-out: Percent Control
T5 construct: purchased Eurofins DiscoverX (KINOMEscan)
Description: as §1

[2] = target: T6, ABL1(F317L)-phosphorylated (Homo sapiens, UniProt P00519, F317L); test: KINOMEScan; type: binding; conditions: read-out: Percent Control
T6 construct: purchased Eurofins DiscoverX
Description: as §1

DRAK1 = target: T7, DRAK1 (Homo sapiens, UniProt Q9UEE5); test: KINOMEScan; type: binding; conditions: DRAK1, 1 μM; read-out: Percent Control
T7 construct: purchased Eurofins DiscoverX (contract assay)
T7 sequence (Q9UEE5 1-414): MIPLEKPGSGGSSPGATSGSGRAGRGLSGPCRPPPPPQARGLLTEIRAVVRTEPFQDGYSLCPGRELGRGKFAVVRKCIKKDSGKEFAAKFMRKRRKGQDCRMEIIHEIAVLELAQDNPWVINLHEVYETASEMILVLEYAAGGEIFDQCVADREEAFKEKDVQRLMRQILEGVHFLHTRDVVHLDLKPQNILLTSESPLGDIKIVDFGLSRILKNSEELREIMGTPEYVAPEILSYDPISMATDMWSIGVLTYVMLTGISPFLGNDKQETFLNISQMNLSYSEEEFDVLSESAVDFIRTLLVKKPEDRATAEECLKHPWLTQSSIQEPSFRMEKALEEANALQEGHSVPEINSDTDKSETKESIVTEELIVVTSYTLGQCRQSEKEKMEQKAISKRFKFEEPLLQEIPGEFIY
Description: as §1

CHO-K1 cells = test: In vitro micronucleus test; type: cell-based, Chinese hamster; conditions: ± rat liver S9; valid to 31 μM + S9 and 8 μM − S9
Description: Compound 9 was assessed for genotoxicity by Eurofins Panlabs using the in vitro micronucleus test in Chinese hamster ovary (CHO-K1) cells as previously described.[79] Compound 9 was incubated in a 96-well plate format at varying concentrations (8, 16, 31, 62, 125, 250, 500, and 1000 μM) for 4 h at 37 °C with metabolic activation by rat liver S9 and 24 h at 37 °C without metabolic activation by rat liver S9. High content analysis and fluorescence imaging were used to detect micronuclei and compared against positive controls (cyclophosphamide (ran at 7.2 μM) and mitomycin C (ran at 0.3 μM)). Significances of the positive counts between the treatment and control were determined by one-tailed t test with two-sample equal variance.

ABL2 = target: T8, ABL2 (Homo sapiens, UniProt P42684); test: KINOMEScan; type: binding; conditions: ABL2, 1 µM; read-out: Percent Control
T8 construct: purchased Eurofins DiscoverX
Description: as §1

BRSK1 = target: T9, BRSK1 (Homo sapiens, UniProt Q8TDC3); test: KINOMEScan; type: binding; conditions: BRSK1, 1 µM; read-out: Percent Control
T9 construct: purchased Eurofins DiscoverX (KINOMEscan)
Description: as §1

ACVR2B = target: T10, ACVR2B (Homo sapiens, UniProt Q13705); test: KINOMEScan; type: binding; conditions: read-out: Percent Control
T10 construct: purchased Eurofins DiscoverX (KINOMEscan)
Description: as §1

AURKA = target: T11, AURKA (Homo sapiens, UniProt O14965); test: KINOMEScan; type: binding; conditions: read-out: Percent Control
T11 construct: purchased Eurofins DiscoverX (KINOMEscan)

T8 sequence (P42684 whole entry): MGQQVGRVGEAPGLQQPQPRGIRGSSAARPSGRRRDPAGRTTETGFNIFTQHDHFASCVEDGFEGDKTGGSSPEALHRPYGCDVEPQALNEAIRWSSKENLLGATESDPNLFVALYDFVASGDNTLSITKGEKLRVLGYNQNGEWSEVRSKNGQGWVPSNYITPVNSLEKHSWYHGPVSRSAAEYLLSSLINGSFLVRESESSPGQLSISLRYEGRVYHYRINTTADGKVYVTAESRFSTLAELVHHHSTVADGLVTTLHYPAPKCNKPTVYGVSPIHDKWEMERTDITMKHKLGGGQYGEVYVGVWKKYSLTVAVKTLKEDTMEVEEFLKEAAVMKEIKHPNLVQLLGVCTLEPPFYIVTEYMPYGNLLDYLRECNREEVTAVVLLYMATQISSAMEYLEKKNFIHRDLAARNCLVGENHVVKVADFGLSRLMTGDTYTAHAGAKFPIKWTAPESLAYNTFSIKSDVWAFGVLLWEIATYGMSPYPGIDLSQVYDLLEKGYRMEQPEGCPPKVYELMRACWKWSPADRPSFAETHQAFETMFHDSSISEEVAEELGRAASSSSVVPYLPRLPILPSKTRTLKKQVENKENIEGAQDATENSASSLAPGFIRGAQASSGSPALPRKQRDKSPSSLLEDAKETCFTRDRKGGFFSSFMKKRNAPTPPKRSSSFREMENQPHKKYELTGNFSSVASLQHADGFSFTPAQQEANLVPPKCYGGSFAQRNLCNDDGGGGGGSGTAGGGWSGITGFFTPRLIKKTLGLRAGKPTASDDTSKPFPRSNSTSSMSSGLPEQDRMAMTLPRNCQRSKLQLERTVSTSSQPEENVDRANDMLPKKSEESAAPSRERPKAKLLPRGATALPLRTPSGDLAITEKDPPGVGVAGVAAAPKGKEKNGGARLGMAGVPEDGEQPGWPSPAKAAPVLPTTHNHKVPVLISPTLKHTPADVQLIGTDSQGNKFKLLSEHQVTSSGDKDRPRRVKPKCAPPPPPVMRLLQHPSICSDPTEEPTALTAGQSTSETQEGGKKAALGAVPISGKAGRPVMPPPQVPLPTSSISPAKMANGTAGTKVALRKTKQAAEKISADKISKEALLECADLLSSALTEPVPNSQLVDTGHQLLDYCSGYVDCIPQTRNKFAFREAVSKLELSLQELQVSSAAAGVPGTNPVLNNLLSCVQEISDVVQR
T2 sequence (P04626 23-1255): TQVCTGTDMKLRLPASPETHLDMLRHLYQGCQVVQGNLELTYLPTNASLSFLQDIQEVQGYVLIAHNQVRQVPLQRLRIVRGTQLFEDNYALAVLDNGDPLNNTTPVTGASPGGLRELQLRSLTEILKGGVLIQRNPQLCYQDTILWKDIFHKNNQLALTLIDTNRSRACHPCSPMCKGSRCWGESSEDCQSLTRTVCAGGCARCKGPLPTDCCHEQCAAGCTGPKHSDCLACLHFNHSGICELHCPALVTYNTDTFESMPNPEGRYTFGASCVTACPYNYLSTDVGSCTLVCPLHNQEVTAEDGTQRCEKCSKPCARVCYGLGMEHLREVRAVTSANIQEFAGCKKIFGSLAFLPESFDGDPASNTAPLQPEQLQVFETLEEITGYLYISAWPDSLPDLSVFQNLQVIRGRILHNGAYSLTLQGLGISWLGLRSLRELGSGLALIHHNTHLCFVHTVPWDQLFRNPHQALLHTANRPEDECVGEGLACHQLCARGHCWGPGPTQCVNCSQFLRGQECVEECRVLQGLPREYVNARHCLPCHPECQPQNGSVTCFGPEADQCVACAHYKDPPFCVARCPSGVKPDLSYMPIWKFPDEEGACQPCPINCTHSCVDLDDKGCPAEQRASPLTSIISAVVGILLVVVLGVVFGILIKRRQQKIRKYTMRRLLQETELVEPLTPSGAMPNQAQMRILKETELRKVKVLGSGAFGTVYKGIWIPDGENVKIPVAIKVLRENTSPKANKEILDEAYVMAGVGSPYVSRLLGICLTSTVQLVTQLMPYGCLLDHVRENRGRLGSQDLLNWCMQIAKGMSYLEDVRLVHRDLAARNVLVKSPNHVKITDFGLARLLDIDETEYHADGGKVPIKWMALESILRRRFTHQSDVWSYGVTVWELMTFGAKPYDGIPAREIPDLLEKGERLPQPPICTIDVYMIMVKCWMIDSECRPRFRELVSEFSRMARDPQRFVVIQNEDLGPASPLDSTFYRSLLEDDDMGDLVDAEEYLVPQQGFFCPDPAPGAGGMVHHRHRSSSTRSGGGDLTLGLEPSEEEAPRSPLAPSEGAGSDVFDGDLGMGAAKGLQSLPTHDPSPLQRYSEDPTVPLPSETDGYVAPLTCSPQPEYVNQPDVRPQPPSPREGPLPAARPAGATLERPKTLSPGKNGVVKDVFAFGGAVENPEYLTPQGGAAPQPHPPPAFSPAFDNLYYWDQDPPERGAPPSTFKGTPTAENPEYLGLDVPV
T9 sequence (Q8TDC3 whole entry): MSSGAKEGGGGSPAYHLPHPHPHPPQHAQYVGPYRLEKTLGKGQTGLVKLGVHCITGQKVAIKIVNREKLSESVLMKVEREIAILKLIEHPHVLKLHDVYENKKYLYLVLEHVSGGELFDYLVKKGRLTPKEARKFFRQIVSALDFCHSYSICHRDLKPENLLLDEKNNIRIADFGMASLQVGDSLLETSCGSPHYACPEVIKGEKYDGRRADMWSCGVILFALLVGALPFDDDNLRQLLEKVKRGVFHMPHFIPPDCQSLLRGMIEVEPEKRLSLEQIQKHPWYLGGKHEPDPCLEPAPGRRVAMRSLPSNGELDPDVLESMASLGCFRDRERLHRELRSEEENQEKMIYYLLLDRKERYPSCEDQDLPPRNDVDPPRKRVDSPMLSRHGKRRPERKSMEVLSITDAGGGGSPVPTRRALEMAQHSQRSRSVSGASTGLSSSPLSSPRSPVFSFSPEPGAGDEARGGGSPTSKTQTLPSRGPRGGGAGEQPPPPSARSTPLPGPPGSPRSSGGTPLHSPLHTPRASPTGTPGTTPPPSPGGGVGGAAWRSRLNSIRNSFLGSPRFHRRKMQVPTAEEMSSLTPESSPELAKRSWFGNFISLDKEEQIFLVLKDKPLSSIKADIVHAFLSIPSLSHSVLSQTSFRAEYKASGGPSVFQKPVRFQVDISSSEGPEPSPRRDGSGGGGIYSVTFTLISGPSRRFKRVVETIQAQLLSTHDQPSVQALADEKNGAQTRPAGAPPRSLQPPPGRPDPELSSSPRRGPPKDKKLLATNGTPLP
T6 sequence (P00519 whole entry F317L): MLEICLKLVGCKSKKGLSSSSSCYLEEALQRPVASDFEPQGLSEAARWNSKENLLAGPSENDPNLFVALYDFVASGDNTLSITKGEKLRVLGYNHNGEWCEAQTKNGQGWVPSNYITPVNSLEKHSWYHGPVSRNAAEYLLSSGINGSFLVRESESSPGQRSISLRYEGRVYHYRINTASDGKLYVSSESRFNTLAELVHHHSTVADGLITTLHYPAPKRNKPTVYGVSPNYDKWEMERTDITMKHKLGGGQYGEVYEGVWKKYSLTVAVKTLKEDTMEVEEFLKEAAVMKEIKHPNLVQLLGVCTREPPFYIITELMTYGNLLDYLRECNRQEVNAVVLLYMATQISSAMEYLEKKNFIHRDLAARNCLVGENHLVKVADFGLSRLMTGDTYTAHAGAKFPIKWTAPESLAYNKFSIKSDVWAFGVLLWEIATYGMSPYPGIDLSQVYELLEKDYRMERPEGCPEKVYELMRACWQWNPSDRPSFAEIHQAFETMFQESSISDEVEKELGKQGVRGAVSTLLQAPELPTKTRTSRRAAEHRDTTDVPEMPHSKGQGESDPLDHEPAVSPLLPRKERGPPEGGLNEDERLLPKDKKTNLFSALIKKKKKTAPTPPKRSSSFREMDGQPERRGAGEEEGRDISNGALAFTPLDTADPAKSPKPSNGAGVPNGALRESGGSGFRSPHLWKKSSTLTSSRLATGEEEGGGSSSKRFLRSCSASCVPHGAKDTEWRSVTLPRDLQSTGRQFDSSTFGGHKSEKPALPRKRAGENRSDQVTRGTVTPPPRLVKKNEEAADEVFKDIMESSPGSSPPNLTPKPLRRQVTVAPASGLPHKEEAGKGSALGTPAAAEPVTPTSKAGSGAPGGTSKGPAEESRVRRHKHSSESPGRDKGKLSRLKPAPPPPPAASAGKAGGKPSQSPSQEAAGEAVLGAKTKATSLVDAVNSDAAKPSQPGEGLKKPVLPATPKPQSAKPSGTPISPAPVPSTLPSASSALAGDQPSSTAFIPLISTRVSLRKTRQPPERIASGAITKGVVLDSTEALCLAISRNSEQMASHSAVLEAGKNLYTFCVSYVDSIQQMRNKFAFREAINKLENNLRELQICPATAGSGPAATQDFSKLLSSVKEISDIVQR
T1 sequence (P54646 whole entry): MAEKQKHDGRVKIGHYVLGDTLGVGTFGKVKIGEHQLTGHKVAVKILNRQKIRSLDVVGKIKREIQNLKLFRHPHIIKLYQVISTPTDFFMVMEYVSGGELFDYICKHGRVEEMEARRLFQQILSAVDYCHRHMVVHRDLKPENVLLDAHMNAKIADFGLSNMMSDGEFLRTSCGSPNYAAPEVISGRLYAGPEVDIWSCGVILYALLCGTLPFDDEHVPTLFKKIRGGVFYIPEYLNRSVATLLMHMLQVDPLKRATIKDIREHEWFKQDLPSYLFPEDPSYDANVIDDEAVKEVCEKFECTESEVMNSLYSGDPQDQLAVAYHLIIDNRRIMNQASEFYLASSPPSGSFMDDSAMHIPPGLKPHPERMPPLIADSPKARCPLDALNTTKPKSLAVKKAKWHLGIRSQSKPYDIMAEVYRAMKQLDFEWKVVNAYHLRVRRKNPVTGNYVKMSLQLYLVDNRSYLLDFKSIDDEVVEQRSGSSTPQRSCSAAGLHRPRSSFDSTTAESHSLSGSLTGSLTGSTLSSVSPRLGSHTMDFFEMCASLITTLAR

SMILES: COc1cc2ncnc(Nc3cccc(Cl)c3F)c2cc1OCCON1CCN(C)CC1 [Compound 9, N-(3-Chloro-2-fluorophenyl)-7-methoxy-6-(2-((4-methylpiperazin-1-yl)oxy)ethoxy)quinazolin-4-amine]
- hepatocyte CLint at 2 h, 1 µM ([1]; cynomolgus monkey, hepatocytes): 29 µL/min/1e6 cells
- Remaining Percentages ([1]; 15 min): 49.08%
- Remaining Percentages ([1]; 30 min): 30.35%
- Remaining Percentages ([1]; 60 min): 13.17%
- Remaining Percentages ([1]; 90 min): 4.27%
- Remaining Percentages ([1]; 120 min): BLOD
- remaining binding at 1 µM (AMPK-alpha2): 97%
- remaining binding at 1 µM (ERBB2 (HER2)): 0.45%
- remaining binding at 1 µM (AURKC): 82%
- remaining binding at 1 µM (WNK2): 94%
- remaining binding at 1 µM (AKT1): 100%
- remaining binding at 1 µM [2]: 4%
- remaining binding at 1 µM (DRAK1): 8.3%
- In vitro micronucleus (CHO-K1 cells): neither mutagenic nor genotoxic potential; also recorded: Negative
- remaining binding at 1 µM (ABL2): 64%
- remaining binding at 1 µM (BRSK1): 100%
- remaining binding at 1 µM (ACVR2B): 100%
- remaining binding at 1 µM (AURKA): 75%
